In patent EP3797781A1, “USE OF EC-7072 AND SYNERGIC COMPOSITIONS THEREOF IN TREATMENT OF CHRONIC LYMPHOCYTIC LEUKEMIA” (priority 2019, dated 2021):

Tests used:
histone H2AX = experiment: Phosphoflow of phosphorylated H2AX in isolated leukemia cells; type: cell-based, human; details: 200 nM, 12 hours; isolated leukemia cells (n = 4)
Procedure: (§1) Protein phosphorylation levels were evaluated by phosphoflow. Briefly, isolated leukemia cells from patients with CLL were treated with 200 nM EC-7072 or DMSO for 8 or 12 hours. In some experiments, BCR signaling was activated with goat F(ab')2 anti-IgM antibody (10 µg/mL; SouthernBiotech) for 45 minutes. Right afterwards, cells were fixed with 1.8% paraformaldehyde for 10 minutes at RT and permeabilized with 90% ice-cold methanol for 25 minutes at 4 °C. Finally, cells were incubated with specific phospho-antibodies (p-SYK, p-BTK, p-ERK1/2 and p-H2AX from Biolegend, and p-PLCγ2, p-AKT, p-p65 NF-κB and p-STAT3 from BD Bioscience) for 30 minutes at RT and mean fluorescence intensity (MFI) was analyzed by flow cytometry.
The induction of caspase-dependent apoptosis on primary CLL cells by EC-7072 was assessed by: • (i) incubating PBMCs isolated from patients with CLL (n = 6) following treatment with increasing concentrations of EC-7072 (0 - 400 nM) for 24 hours. Apoptosis of leukemia cells was evaluated by cytofluorometric assessment of Annexin V/PI staining to obtain percentages of apoptotic [Annexin V^+ PI^-] and dead [PI^+] cells (Figure 3A); • (ii) incubating PBMCs and T cells isolated from patients with CLL (n = 3) following treatment with EC-7072 (200 nM) for 24 hours. […]

BCR signaling pathway = experiment: Phosphoflow of BCR signaling nodes in isolated leukemia cells; type: cell-based, human
Procedure: as §1
The inhibition of the tonic BCR pathway by EC-7072 was evaluated by: • (i) incubating PBMCs from patients with CLL, following treatment with 200 nM EC-7072, for 8 hours. Surface expression of CD79A (Figure 7A), CD79B (Figure 7B) and IgM (Figure 7C) in leukemia cells (n = 5 - 6) was assessed by flow cytometry and the MFI was normalized to the control (DMSO) condition; • (ii) incubating isolated leukemia cells from patients with CLL (n = 10), following treatment with EC-7072 (200 nM), for 8 hours. Phosphorylation levels of p-SYK (Figure 7D), p-BTK (Figure 7E) and p-PLCy2 (Figure 7F) proteins and p-ERK1/2 (Figure 7G), p-AKT (Figure 7H), p-p65 NPκB (Figure 7I) and p-STAT3 (Figure 7J) were evaluated by phosphoflow and the MFI was normalized to the control (DMSO) from each individual patient; • (iii) incubating PBMCs from patients with CLL (n = 8), following treatment with EC-7072 (200 nM), for 8 hours. Viability was determined by DiOC6(3)/PI staining and normalized to the control (DMSO) condition for each individual patient to obtain the mean percentage of viable [DiOC6(3)^+] cells (Figure 7K); • (iv) incubating isolated CLL cells (n = 4) stimulated with CD40L (100 ng/mL) or IL-6 (40 ng/mL) for 15 minutes and detecting respective phosphorylation levels of p65 NF-κB (Figure 7L) and STAT3 (Figure 7M) by phosphoflow to obtain the mean MFI normalized to the control (DMSO) condition for each individual patient; • (v) incubating isolated leukemia cells from 3 patients with CLL, following treatment with 200 nM EC-7072, for 3, 8 and 12 hours. […]
The partial abrogation of EC-7072-induced cell death of primary CLL cells by activation of the BCR was evaluated by: • (i) incubating PBMCs from patients with CLL (n = 15), following treatment with EC-7072 (200 nM) in combination with α-IgM (10 µg/mL), for 24 hours. […]

Structure (SMILES): CO[C@@H]([C@@H]1Cc2cc3cc(O[C@H]4C[C@@H](O[C@H]5C[C@@H](O)[C@H](O)[C@@H](C)O5)[C@H](O)[C@@H](C)O4)c(C)c(O)c3c(O)c2C(=O)[C@H]1O[C@H]1C[C@@H](O[C@H]2C[C@@H](O[C@H]3C[C@](C)(O)[C@H](O)[C@@H](C)O3)[C@@H](O)[C@@H](C)O2)[C@H](O)[C@@H](C)O1)[C@@H](O)C(C)=O [EC-7072, mithramycin SK]
- phosphorylation of histone H2AX (histone H2AX): heightened phosphorylation
- amounts of p-AKT (BCR signaling pathway; 200 nM, 8 hours, n = 10): No marked changes
- levels of phosphorylated (p)-SYK, p-BTK and p-PLCγ2 (BCR signaling pathway; 200 nM, 8 hours, n = 10): significant reduction
- phosphorylation levels of ERK1/2, p65 NF-κB and STAT3 (BCR signaling pathway; 200 nM, 8 hours, n = 10): significant downregulation
- phosphorylation of ERK1/2, AKT, p65 NF-κB and STAT3 ensued by anti-IgM (BCR signaling pathway; EC-7072 200 nM 8 hours, then α-IgM (10 µg/mL) 15 minutes): not significantly reverted
